Test results: patent publication US7064120B2, “Tricyclic pyridyl carboxamides and derivatives thereof tocolytic oxytocin receptor antagonists” (Wyeth, priority 2001, dated 2006)

Target: T1, human oxytocin receptor (Homo sapiens, UniProt P30559)
T1 construct: host or cells: CHO cells, stably transfected (pcDNA3.1 vector)
T1 sequence (P30559 1-389): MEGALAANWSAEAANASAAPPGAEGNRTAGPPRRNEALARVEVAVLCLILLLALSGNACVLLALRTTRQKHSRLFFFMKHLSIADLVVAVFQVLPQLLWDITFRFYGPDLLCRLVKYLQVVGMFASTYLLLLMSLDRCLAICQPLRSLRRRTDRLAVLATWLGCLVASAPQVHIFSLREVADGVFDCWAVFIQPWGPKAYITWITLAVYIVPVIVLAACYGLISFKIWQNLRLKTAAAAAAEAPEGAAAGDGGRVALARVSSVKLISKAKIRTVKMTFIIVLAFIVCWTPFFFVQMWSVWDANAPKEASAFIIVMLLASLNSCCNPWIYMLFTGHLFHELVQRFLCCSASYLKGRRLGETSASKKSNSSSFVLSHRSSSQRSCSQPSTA
Assay: Oxytocin binding in CHO cell membranes expressing human oxytocin receptors ([3H]oxytocin radioligand binding)
Settings: 100 nM, read-out: OT % inhibition @ 100 nM
How it was run: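 Values are % inhibition at one concentration or nM IC50 from [3H]oxytocin displacement. Membranes from human oxytocin receptor CHO cells, 25–50 μg protein/well, 60 min at room temperature, pH 7.4 Tris buffer with protease inhibitors; bound label by filtration and scintillation counting.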

Row | Structure (SMILES) | inhibition at 0.1 µM
1 | COc1ccccc1-c1ccc(C(=O)N2Cc3ccc(C(=O)N4CCCCC4c4cccnc4)n3Cc3ccccc32)cc1OC (stereo not drawn) [Example 141, {10-[(2,2′-Dimethoxy-[1,1′-biphenyl]-4-yl)carbonyl]-10,11-dihydro-5H-pyrrolo[2,1-c][1,4]benzodiazepin-3-yl}[2-(3-pyridinyl)-1-piperidinyl]methanone] | 96%
2 | Cc1cc(C(=O)N2Cc3ccc(C(=O)N4CCCCC4c4cccnc4)n3Cc3ccccc32)ccc1-c1ccccc1C(F)(F)F (stereo not drawn) [Example 142, (10-{[2-Methyl-2′-trifluoromethyl-[1,1′-biphenyl]-4-yl]carbonyl}-10,11-dihydro-5H-pyrrolo[2,1-c][1,4]benzodiazepin-3-yl)[2-(3-pyridinyl)-1-piperidinyl]methanone] | 93%
3 | COc1cc(C(=O)N2Cc3ccc(C(=O)N(C)CCc4ccccn4)n3Cc3ccccc32)ccc1-n1c(C)ccc1C [Example 144, 10-[4-(2,5-Dimethyl-1H-pyrrol-1-yl)-3-methoxybenzoyl]-N-methyl-N-[2-(pyridin-2-yl)ethyl]-10,11-dihydro-5H-pyrrolo[2,1-c][1,4]benzodiazepine-3-carboxamide] | 57%
4 | COc1cc(C(=O)N2Cc3ccc(C(=O)N4CCN(c5ccccn5)CC4)n3Cc3ccccc32)ccc1-n1c(C)ccc1C [Example 145, {10-[4-(2,5-Dimethyl-1H-pyrrol-1-yl)-3-methoxybenzoyl]-10,11-dihydro-5H-pyrrolo[2,1-c][1,4]benzodiazepin-3-yl}[4-(pyridin-2-yl)-1-piperazinyl]methanone] | 22%
5 | COc1cc(C(=O)N2Cc3ccc(C(=O)N4CCN(c5ccncc5)CC4)n3Cc3ccccc32)ccc1-n1c(C)ccc1C [Example 146, {10-[4-(2,5-Dimethyl-1H-pyrrol-1-yl)-3-methoxybenzoyl]-10,11-dihydro-5H-pyrrolo[2,1-c][1,4]benzodiazepin-3-yl}[4-(pyridin-4-yl)-1-piperazinyl]methanone] | 38%
6 | COc1cc(C(=O)N2Cc3ccc(C(=O)N(C)CCc4ccncc4)n3Cc3ccccc32)ccc1-n1c(C)ccc1C [Example 147, 10-[4-(2,5-Dimethyl-1H-pyrrol-1-yl)-3-methoxybenzoyl]-N-methyl-N-[2-(pyridin-4-yl)ethyl]-10,11-dihydro-5H-pyrrolo[2,1-c][1,4]benzodiazepine-3-carboxamide] | 64%
